# Literature values in publication PMC5760531, “Action Potential Recording and Pro-arrhythmia Risk Analysis in Human Ventricular Trabeculae” (Frontiers in Physiology, 2018).
# System: hERG
# Conditions: read-out: IC50 for hERG; previous experiments; ref Qu and Vargas, 2015; cited from earlier work
smiles,measurement,value
"Nc1nnc(-c2cccc(Cl)c2Cl)c(N)n1 [LAMOTRIGINE, Lamotrigine]",IC50,110 µM
